Source: patent publication US9845292B2 (Max-Planck-Gesellschaft zur Förderung der Wissenschaften …, priority 2013, dated 2017)
Where two headings read alike, the source gives them in different places.

Legend:
FKBP51 = target: T1, FKBP51 (Homo sapiens, UniProt Q13451); test: Fluorescence polarization binding assay, FK1-domain of FKBP51WT with tracer F4; parameters: Purified FK1-domains of FKBP51WT (4.5 nM) with F4 (3 nM), FKBP52WT (400 nM) with F2 (20 nM); made in house; host or cells: E. coli BL21(DE3)pLysS; settings: read-out: Affinity(Ki) for FKBP51
T1 sequence (Q13451 42-130 limits assumed): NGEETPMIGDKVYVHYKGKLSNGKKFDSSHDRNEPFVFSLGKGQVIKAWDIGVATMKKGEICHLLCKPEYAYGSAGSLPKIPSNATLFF
Procedure: (§1) The target protein was also diluted in this assay buffer at double the highest concentration required for the final sample. This protein stock was used for a 1:1 serial dilution.
(§2) The inventive compound was dissolved in DMSO to reach a 100-times concentrated stock solution. This was used for a 1:1 serial dilution in DMSO.
(§3) For FKBP12, −51, and −52 the binding assays were performed in duplicates in the plate format.
(§4) The competition curves were analyzed by using SigmaPlot9. Data were fitted to a four parameter logistic curve to deduce the IC50 values. […] A=(Amax−Amin)/[L]t×(([L]t×((2×((Klig+Kcomp+[L]t+[I]t−[R]t)^2−3×(Kcomp×([L]t−[R]t)+Klig×([I]t−[R]t)+Klig×Kcomp))^0.5×COS(ARCCOS((−2×(Klig+Kcomp+[L]t+[I]t−[R]t)^3+9×(Klig+Kcomp+[L]t+[I]t−[R]t)×(Kcomp×([L]t−[R]t)+Klig×([I]t−[R]t)+Klig×Kcomp)−27×(−1×Klig×Kcomp×[R]t))/(2×((((Klig+Kcomp+[L]t+[I]t−[R]t)^2−3×(Kcomp×([L]t−[R]t)+Klig×([I]t−[R]t)+Klig×Kcomp))^3)^0.5)))/3))−(Klig+Kcomp+[L]t+[I]t−[R]t)))/((3×Klig)+((2×((Klig+Kcomp+[L]t+[I]t−[R]t)^2−3×(Kcomp×([L]t−[R]t)+Klig×([I]t−[R]t)+Klig×Kcomp))^0.5×COS(ARCCOS((−2×(Klig+Kcomp+[L]t+[I]t−[R]t)^3+9×(Klig+Kcomp+[L]t+[I]t−[R]t)×(Kcomp×([L]t−[R]t)+Klig×([I]t−[R]t)+Klig×Kcomp)−27×(−1×Klig×Kcomp×[R]t))/(2×((((Klig+Kcomp+[L]t+[I]t−[R]t)^2−3×(Kcomp×([L]t−[R]t)+Klig×([I]t−[R]t)+Klig×Kcomp))^3)^0.5)))/3))−(Klig+Kcomp+[L]t+[I]t−[R]t))))+Amin
(§5) In this equation Klig and Kcomp stand for the Kd values of the used tracer or competing inhibitor, [I]t is referring to the total concentration of the titrated inhibitor.
(§6) Inhibition constants were measured in a fluorescence polarization binding assay by titrating the compounds.

FKBP52 = target: T2, FKBP52 (Homo sapiens, UniProt Q02790); test: Fluorescence polarization binding assay, FK1-domain of FKBP52WT with tracer F2 (selectivity FKBP51 vs. FKBP52); settings: selectivity factor over FKBP52
T2 construct: Purified FK1-domains of FKBP51WT (4.5 nM) with F4 (3 nM), FKBP52WT (400 nM) with F2 (20 nM); implied by Ni-NTA purification) (N); made in house; host or cells: E. coli BL21(DE3)pLysS
T2 sequence (Q02790 50-138 limits assumed): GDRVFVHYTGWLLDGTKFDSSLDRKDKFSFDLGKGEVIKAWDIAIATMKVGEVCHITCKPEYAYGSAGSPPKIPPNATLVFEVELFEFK
Procedure: as §1, §2, §3, §4, §5
The Selectivity of the Compounds was Classified by Ki(FKBP51)/Ki(FKBP52)
as §6

[1] = FK1-domain of FKBP51WT (4.5 nM) with F4 (3 nM), A series
[2] = FKBP52WT (400 nM) with F2 (20 nM), A series

Row | Compound | Ki (FKBP51; compounds B01-C25) [µM] | Ki(FKBP51)/Ki(FKBP52) (FKBP52; compounds B01-C25) | Ki (FKBP51; [1]) [µM] | Ki(FKBP51)/Ki(FKBP52) (FKBP52; [2])
1 | COc1cc([C@@H](C(=O)N2CCCC[C@H]2C(=O)OC(CCCc2cccnc2)CCCc2cccnc2)C2CCCCC2)cc(OC)c1OC [Compound A19, (2S)-1,7-di(pyridin-3-yl)heptan-4-yl 1-(2-cyclohexyl-2-(3,4,5-trimethoxyphenyl)acetyl)piperidine-2-carboxylate] |  |  | < 0.1 | +++ (>500 +++)
2 | COc1ccc(OCCOC(=O)[C@@H]2CCCCN2C(=O)[C@H](c2cc(OC)c(OC)c(OC)c2)C2C=CCCC2)cc1OC (stereo in doubt) [Compound A14, (S)-2-(3,4-Dimethoxyphenoxy)ethyl-1-((S)-2-((R)-cyclohex-2-en-1-yl)-2-(3,4,5-trimethoxyphenyl)acetyl)piperidine-2-carboxylate] |  |  | 0.1 to 1 | ++ (>50 ++)
3 | C=CC[C@H](C(=O)N1CC=CC[C@H]1C(=O)O[C@H](CCc1ccc(OC)c(OC)c1)c1cccc(OCCN2CCOCC2)c1)c1cc(OC)c(OC)c(OC)c1 [Compound A06] |  |  | 10 to 50 | + (>5 +)
4 | COc1ccc(CCC(OC(=O)[C@@H]2CCCCN2C(=O)C(NC(=O)C2CCCCC2)C2CCCCC2)c2cccc(OCC(=O)O)c2)cc1OC (stereo partly drawn) [Compound A26, 2-(3-(1-(((2S)-1-(2-(cyclohexanecarboxamido)-2-cyclohexylacetyl)piperidine-2-carbonyl)oxy)-3-(3,4-dimethoxyphenyl)propyl)phenoxy)acetic acid] |  |  | 10 to 50 | + (>5 +)
5 | COc1ccc(CC[C@@H](NC(=O)[C@@H]2CCCCN2C(=O)[C@H](c2cc(OC)c(OC)c(OC)c2)C2CCCCC2)c2cccc(OCC(=O)O)c2)cc1OC [Compound A22, 2-(3-((R)-1-((S)-1-((S)-2-cyclohexyl-2-(3,4,5-trimethoxyphenyl)acetyl)piperidine-2-carboxamido)-3-(3,4-dimethoxyphenyl)propyl)phenoxy)acetic acid] |  |  | 0.1 to 1 | ++ (>50 ++)
6 | COc1ccc(CCC(OC(=O)C2CCCN2C(=O)[C@H](c2cc(OC)c(OC)c(OC)c2)C2C=CCCC2)c2cccc(OCCN3CCOCC3)c2)cc1OC (stereo in doubt) [Compound A15, (S)-(R)-3-(3,4-dimethoxyphenyl)-1-(3-(2-morpholinoethoxy)phenyl)propyl-1-((S)-2-((R)-cyclohex-2-en-1-yl)-2-(3,4,5-trimethoxyphenyl)acetyl)pyrrolidine-2-carboxylate] |  |  | < 0.1 | +++ (>500 +++)

Further lines, results first:

Row | Ki (FKBP51; compounds B01-C25) [µM] | Ki(FKBP51)/Ki(FKBP52) (FKBP52; compounds B01-C25) | Ki (FKBP51; [1]) [µM] | Ki(FKBP51)/Ki(FKBP52) (FKBP52; [2]) | Compound
7 | 1 to 10 | ++ (>50 ++) |  |  | CC[C@H](NC(=O)[C@@H]1CCCCN1C(=O)[C@H](c1cc(OC)c(OC)c(OC)c1)C1CCCCC1)C(N)=O [Compound B12, (S)-N-((S)-1-amino-1-oxobutan-2-yl)-1-((S)-2-cyclohexyl-2-(3,4,5-trimethoxyphenyl)acetyl)piperidine-2-carboxamide]
8 | 1 to 10 | ++ (>50 ++) |  |  | CC[C@H](C)[C@H](NC(=O)[C@@H]1CCCCN1C(=O)[C@H](c1cc(OC)c(OC)c(OC)c1)C1CCCCC1)C(N)=O [Compound B14, (S)-N-((2S,3S)-1-amino-3-methyl-1-oxopentan-2-yl)-1-((S)-2-cyclohexyl-2-(3,4,5-trimethoxyphenyl)acetyl)piperidine-2-carboxamide]
9 | 10 to 50 | ++ (>50 ++) |  |  | CCNC(=O)[C@@H]1CCCCN1C(=O)[C@H](c1cc(OC)c(OC)c(OC)c1)C1CCCCC1 [Compound C05, (S)-1-((S)-2-cyclohexyl-2-(3,4,5-trimethoxyphenyl)acetyl)-N-ethylpiperidine-2-carboxamide]
10 | 1 to 10 | ++ (>50 ++) |  |  | COc1cc([C@@H](C(=O)N2CCCC[C@H]2C(=O)N[C@H](Cc2ccccc2)C(N)=O)C2CCCCC2)cc(OC)c1OC [Compound B06, (S)-N-((R)-1-amino-1-oxo-3-phenylpropan-2-yl)-1-((S)-2-cyclohexyl-2-(3,4,5-trimethoxyphenyl)acetyl)piperidine-2-carboxamide]
11 | 10 to 50 | ++ (>50 ++) |  |  | COc1cc([C@@H](C(=O)N2CCCC[C@H]2C(=O)N[C@H](Cc2c[nH]cn2)C(N)=O)C2CCCCC2)cc(OC)c1OC [Compound B34, (S)-N-((R)-1-amino-3-(1H-imidazol-4-yl)-1-oxopropan-2-yl)-1-((S)-2-cyclohexyl-2-(3,4,5-trimethoxyphenyl)acetyl)piperidine-2-carboxamide]
12 | 1 to 10 | ++ (>50 ++) |  |  | CCC(C)OC(=O)C1CCCCN1C(=O)[C@H](c1cc(OC)c(OC)c(OC)c1)C1CCCCC1 (stereo in doubt) [Compound C08, (S)-(R)-sec-butyl-1-((S)-2-cyclohexyl-2-(3,4,5-trimethoxyphenyl)acetyl) piperidine-2-carboxylate]
13 | 10 to 50 | + (>5 +) |  |  | COc1cc([C@@H](C(=O)N2CCCC[C@H]2C(=O)N[C@@H](CCC(N)=O)C(N)=O)C2CCCCC2)cc(OC)c1OC [Compound B23, (S)-2-((S)-1-((S)-2-cyclohexyl-2-(3,4,5-trimethoxyphenyl)acetyl)piperidine-2-carboxamido)pentanediamide]
14 | 1 to 10 | ++ (>50 ++) |  |  | CC[C@@H](NC(=O)[C@@H]1CCCCN1C(=O)[C@H](c1cc(OC)c(OC)c(OC)c1)C1CCCCC1)C(N)=O [Compound B13, (S)-N-((R)-1-amino-1-oxobutan-2-yl)-1-((S)-2-cyclohexyl-2-(3,4,5-trimethoxyphenyl)acetyl)piperidine-2-carboxamide]
15 | 1 to 10 | ++ (>50 ++) |  |  | COc1cc([C@@H](C(=O)N2CCCC[C@H]2C(=O)NC2(C(N)=O)CCC2)C2CCCCC2)cc(OC)c1OC [Compound B27, (S)-N-(1-carbamoylcyclobutyl)-1-((S)-2-cyclohexyl-2-(3,4,5-trimethoxyphenyl)acetyl)piperidine-2-carboxamide]
16 | 10 to 50 | + (>5 +) |  |  | COc1cc([C@@H](C(=O)N2CCCC[C@H]2C(=O)N[C@@H](Cc2c[nH]cn2)C(N)=O)C2CCCCC2)cc(OC)c1OC [Compound B35, (S)-N-((S)-1-amino-3-(1H-imidazol-4-yl)-1-oxopropan-2-yl)-1-((S)-2-cyclohexyl-2-(3,4,5-trimethoxyphenyl)acetyl)piperidine-2-carboxamide]
17 | 1 to 10 | ++ (>50 ++) |  |  | COCCOC(=O)[C@@H]1CCCCN1C(=O)[C@H](c1cc(OC)c(OC)c(OC)c1)C1CCCCC1 [Compound C18, (S)-2-methoxyethyl-1-((S)-2-cyclohexyl-2-(3,4,5-trimethoxyphenyl)acetyl) piperidine-2-carboxylate]
18 | 1 to 10 | ++ (>50 ++) |  |  | COc1cc([C@@H](C(=O)N2CCCC[C@H]2C(=O)N[C@H](CO)C(N)=O)C2CCCCC2)cc(OC)c1OC [Compound B21, (S)-N-((R)-1-amino-3-hydroxy-1-oxopropan-2-yl)-1-((S)-2-cyclohexyl-2-(3,4,5-trimethoxyphenyl)acetyl)piperidine-2-carboxamide]
19 | 10 to 50 | + (>5 +) |  |  | COc1cc([C@@H](C(=O)N2CCCC[C@H]2C(=O)N[C@@H](CC2CCCCC2)C(N)=O)C2CCCCC2)cc(OC)c1OC [Compound B07, (S)-N-((S)-1-amino-3-cyclohexyl-1-oxopropan-2-yl)-1-((S)-2-cyclohexyl-2-(3,4,5-trimethoxyphenyl)acetyl)piperidine-2-carboxamide]
